Data as given in US20260159512A1, “BCAT2 INHIBITORS” (AGIOS PHARMACEUTICALS, INC., priority 2021, published 2026).

Assays:
Conditions in all cases: average where tested multiple times
hBCAT1 = target: T1, hBCAT1 (Homo sapiens, UniProt P54687); assay: BCAT1 in vitro enzyme inhibition assay (resazurin/diaphorase-coupled fluorescence); format: biochemical
T1 sequence (P54687 1-386): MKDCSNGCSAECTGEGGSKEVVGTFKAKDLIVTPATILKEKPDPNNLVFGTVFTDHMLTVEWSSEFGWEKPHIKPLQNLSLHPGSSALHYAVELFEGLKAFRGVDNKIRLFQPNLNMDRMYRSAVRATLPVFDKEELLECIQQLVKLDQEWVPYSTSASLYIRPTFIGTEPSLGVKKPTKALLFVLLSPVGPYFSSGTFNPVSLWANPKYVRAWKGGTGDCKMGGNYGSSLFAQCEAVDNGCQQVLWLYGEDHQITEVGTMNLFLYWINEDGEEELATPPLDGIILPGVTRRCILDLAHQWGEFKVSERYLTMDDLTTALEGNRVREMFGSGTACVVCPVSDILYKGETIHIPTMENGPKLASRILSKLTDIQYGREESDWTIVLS
Procedure, shortened: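 Ten-point, 3-fold compound series (top final 100 μM, delivered 1:50 from 50× DMSO stocks) tested against hBCAT1. Inhibition detected via diaphorase-coupled resazurin fluorescence, duplicate wells, with values from repeated runs averaged.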

BCAT2 [1] = target: T2, BCAT2 (Homo sapiens, UniProt O15382); assay: BCAT2 in vitro cell inhibition using engineered A549 cells (KMV cell assay, 13C6-KMV by LC-MS/MS); format: cell-based; set-up: The result was an engineered A549 cell line that expressed endogenous BCAT2; endogenous in cells; host or cells: A549 cells with MUT and BCAT1 knocked out by CRISPR/CAS9; key to BCAT2 Cell Inhibition: A: less than or equal to 0.100 μM; B: greater than 0.100 and less than or equal to 0.500 μM; C: greater than 0.500 and less than or equal to 1.000 μM; d: greater than 1.000 μM; E: no fit
T2 sequence (O15382 28-392): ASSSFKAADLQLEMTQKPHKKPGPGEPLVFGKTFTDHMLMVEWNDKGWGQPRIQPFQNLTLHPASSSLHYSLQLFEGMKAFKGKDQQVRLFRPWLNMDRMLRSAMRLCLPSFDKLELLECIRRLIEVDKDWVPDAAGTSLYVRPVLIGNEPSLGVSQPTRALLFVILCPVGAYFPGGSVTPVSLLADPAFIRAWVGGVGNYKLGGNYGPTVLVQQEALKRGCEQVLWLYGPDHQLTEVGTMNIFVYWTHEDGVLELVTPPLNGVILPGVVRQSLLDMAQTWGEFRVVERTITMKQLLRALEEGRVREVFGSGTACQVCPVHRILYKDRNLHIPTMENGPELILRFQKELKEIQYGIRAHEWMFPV

BCAT2 [2] = target: T2, BCAT2; assay: BCAT2 in vitro enzyme inhibition assay (resazurin/diaphorase-coupled fluorescence); format: biochemical
Procedure, shortened: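 Coupled fluorescence readout: glutamate formed from L-leucine/α-ketoglutarate transamination drives GDH/NAD/diaphorase reduction of resazurin (Ex 540/Em 590). Human BCAT2 was first exposed 1 h at room temperature to compound, top final 100 μM in 3-fold, 10-point series; substrate reaction ran 1 h before SDS quench, in technical duplicate with DMSO max and enzyme-free min controls.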

## CC(C)Cc1nc2cnc(-c3ncn(C)n3)cc2n1[C@@H]1CCC[C@H](NC(=O)c2ncc(Cl)s2)C1 [Example 358, 5-chloro-N-((1S,3R)-3-(2-isobutyl-6-(1-methyl-1H-1,2,4-triazol-3-yl)-1H-imidazo[4,5-c]pyridin-1-yl)cyclohexyl)thiazole-2-carboxamide]
hBCAT1
  IC50: 500 to 1000 nM
BCAT2 [1]
  IC50: 100 to 500 nM
BCAT2 [2]
  IC50: ≤ 100 nM

## O=C(N[C@H]1CCC[C@@H](n2c(-c3ccccc3O)nc3cnc(-n4nccn4)cc32)C1)c1ncc(Cl)s1 [Example 363, 5-chloro-N-((1S,3R)-3-(2-(2-hydroxyphenyl)-6-(2H-1,2,3-triazol-2-yl)-1H-imidazo[4,5-c]pyridin-1-yl)cyclohexyl)thiazole-2-carboxamide]
hBCAT1
  IC50: < 500 nM
BCAT2 [1]
  IC50: ≤ 100 nM
BCAT2 [2]
  IC50: ≤ 100 nM

## O=C(N[C@H]1CCCN(n2c(-c3ccccc3F)nc3cnc(-c4nc[nH]n4)cc32)C1)c1ncc(Cl)s1 [Example 364, (S)-5-chloro-N-(1-(2-(2-fluorophenyl)-6-(1H-1,2,4-triazol-3-yl)-1H-imidazo[4,5-c]pyridin-1-yl)piperidin-3-yl)thiazole-2-carboxamide]
hBCAT1
  IC50: < 500 nM
BCAT2 [1]
  IC50: ≤ 100 nM
BCAT2 [2]
  IC50: ≤ 100 nM

## N#Cc1cccc(-c2nc3cnc(-c4nc[nH]n4)cc3n2[C@@H]2CCC[C@H](NC(=O)c3ccc(Cl)s3)C2)c1F [Example 365, 5-chloro-N-((1S,3R)-3-(2-(3-cyano-2-fluorophenyl)-6-(1H-1,2,4-triazol-3-yl)-1H-imidazo[4,5-c]pyridin-1-yl)cyclohexyl)thiophene-2-carboxamide]
hBCAT1
  IC50: 1000 to 5000 nM
BCAT2 [1]
  IC50: > 1000 nM
BCAT2 [2]
  IC50: ≤ 100 nM

## NCc1ccccc1-c1nc2cnc(-c3nc[nH]n3)cc2n1[C@@H]1CCC[C@H](NC(=O)c2ncc(Cl)s2)C1 [Example 366, N-((1S,3R)-3-(2-(2-(aminomethyl)phenyl)-6-(1H-1,2,4-triazol-3-yl)-1H-imidazo[4,5-c]pyridin-1-yl)cyclohexyl)-5-chlorothiazole-2-carboxamide]
hBCAT1
  IC50: 500 to 1000 nM
BCAT2 [1]
  IC50: > 1000 nM
BCAT2 [2]
  IC50: ≤ 100 nM

## O=C(N[C@H]1CCC[C@@H](n2c(-c3ccccc3OC(F)F)nc3cnc(-c4nc[nH]n4)cc32)C1)c1ncc(Cl)s1 [Example 367, 5-chloro-N-((1S,3R)-3-(2-(2-(difluoromethoxy)phenyl)-6-(1H-1,2,4-triazol-3-yl)-1H-imidazo[4,5-c]pyridin-1-yl)cyclohexyl)thiazole-2-carboxamide]
hBCAT1
  IC50: < 500 nM
BCAT2 [1]
  BCAT2 Cell Inhibition: E
BCAT2 [2]
  IC50: ≤ 100 nM

## CC(C)Cc1nc2cnc(-c3nc[nH]n3)cc2n1[C@@H]1CCCC[C@H](NC(=O)c2ncc(Cl)s2)C1 [Example 374, 5-chloro-N-((1S,3R)-3-(2-isobutyl-6-(1H-1,2,4-triazol-3-yl)-1H-imidazo[4,5-c]pyridin-1-yl)cycloheptyl)thiazole-2-carboxamide]
hBCAT1
  IC50: < 500 nM
BCAT2 [1]
  IC50: ≤ 100 nM
BCAT2 [2]
  IC50: ≤ 100 nM

## O=C(N[C@H]1CCC[C@@H](n2c(-c3ccccc3F)nc3cnc(-c4ncn(C(F)F)n4)cc32)C1)c1ncc(Cl)s1 [Example 378, 5-chloro-N-((1S,3R)-3-(6-(1-(difluoromethyl)-1H-1,2,4-triazol-3-yl)-2-(2-fluorophenyl)-1H-imidazo[4,5-c]pyridin-1-yl)cyclohexyl)thiazole-2-carboxamide]
hBCAT1
  IC50: < 500 nM
BCAT2 [1]
  IC50: ≤ 100 nM
BCAT2 [2]
  IC50: ≤ 100 nM

## CC1(Cc2nc3cnc(-c4nc[nH]n4)cc3n2[C@@H]2CCC[C@H](NC(=O)c3ncc(Cl)s3)C2)CC1 [Example 379, 5-chloro-N-((1S,3R)-3-(2-((1-methylcyclopropyl)methyl)-6-(1H-1,2,4-triazol-3-yl)-1H-imidazo[4,5-c]pyridin-1-yl)cyclohexyl)thiazole-2-carboxamide]
hBCAT1
  IC50: < 500 nM
BCAT2 [1]
  IC50: ≤ 100 nM
BCAT2 [2]
  IC50: ≤ 100 nM

## CC(C)Cc1nc2cnc(-c3nnco3)cc2n1[C@@H]1CCC[C@H](NC(=O)c2ncc(Cl)s2)C1 [Example 380, 5-chloro-N-((1S,3R)-3-(2-isobutyl-6-(1,3,4-oxadiazol-2-yl)-1H-imidazo[4,5-c]pyridin-1-yl)cyclohexyl)thiazole-2-carboxamide]
hBCAT1
  IC50: > 5000 nM
BCAT2 [1]
  IC50: > 1000 nM
BCAT2 [2]
  IC50: 100 to 500 nM
